Experimental data from patent EP0776155B1, “DELIVERY OF EXOGENOUS CHEMICAL SUBSTANCES TO PLANT TISSUES” (MONSANTO COMPANY, priority 1994, dated 1996).

Columns and labels:
Type in all cases: in vivo
[1] = system: velvetleaf (Abutilon theophrasti, ABUTH); assay: Example 50: percent control, KOH chemical corrosive or garnet abrasion then glyphosate spray; conditions: 11 days after glyphosate application
Experimental: (§1) In this Example illustrative of the invention, velvetleaf (Abutilon theophrasti, ABUTH) seeds were planted in 4-inch (10.1-cm) square pots filled with a soil mix consisting of 50% Metromix 350 plus 50% silt loam soil to which 100 g/cu ft (3.57 kg/m^3) Osmocote fertilizer were added, and the seeds were covered with the same soil mix without added fertilizer. […] The same settings were maintained before and after treatment.
Physical injury in this Example was inflicted on the above-ground portions of the plants, 17 days after planting, by a propelled chemical corrosive, a 2.5% weight/weight aqueous potassium hydroxide (KOH) solution. This solution was applied using a track sprayer calibrated to deliver 20 gallons/acre (187 liters/ha) with an 8002E nozzle having a 50-mesh screen, 16 inches (41 cm) above the plant canopy. Plants were allowed to dry for 1 hour after KOH treatment. Other plants received injury by abrasion using a hand-held Sears Craftsman™ sandblaster as described in Examples 1-9. A third set of plants received no abrasion or corrosion with KOH.
(§2) Plants were then assigned to different herbicide treatments in a factorial experimental design with 3 replications. All plants for each herbicide treatment were sprayed at the same time using a track sprayer calibrated to deliver 20 gallons/acre (187 liters/ha) water with an 8002E nozzle having a 50-mesh screen, 16 inches (41 cm) above the plant canopy. In these Examples the herbicide used was glyphosate as its isopropylamine salt, in the form of the aqueous concentrate formulation MON 2139 of Monsanto Company. Spray solutions were made from stock solutions prepared by dilution of MON 2139 in water.
After an interval of 11 days, a visual evaluation was performed to estimate herbicidal efficacy as percent control of treated plants compared to untreated check plants.

[2] = system: white flatweed (Hypochoeris microcephala, HRYMI); assay: Example 51: field experiment, percent control, bruising or blasting then glyphosate spray; conditions: 14 days after glyphosate application
Experimental: In this Example illustrative of the invention, a field experiment was conducted in the Australian Capital Territory on 5-10 cm high vegetation consisting primarily of white flatweed (Hypochoeris microcephala, HRYMI) at the rosette stage of growth and silvergrass (Vulpia sp., VLPSS) at the 1-3 tiller stage. Plots were established, 2 m wide and 10 m long, with 3 replications of each treatment.
Plots received either no physical injury, or one of two injury treatments, a prior art method described herein as "bruising" and a method of the present invention described herein as "blasting". Bruising involved driving a 2 metric ton four-wheel drive vehicle fitted with rubber tires, twice over the plot in opposite directions. For blasting, a hand-held sandblaster was used having a container of capacity 1000 cm^3 slung under the gun body. The sandblaster was made of die-cast aluminum alloy and equipped with a 6 mm nozzle. The operating pressure was 95 lb/sq inch (655 kPa). The abrasive used was a commercial product consisting of fine glass particles.
Within an hour after bruising or blasting, plots received an application of glyphosate as its isopropylamine salt in the form of the aqueous concentrate formulation sold in Australia as Roundup® herbicide, diluted appropriately in water. Application was made using a hand-held boom sprayer fitted with 11001 nozzles, operating at 250 kPa pressure and delivering 90 liters/ha spray volume.
After an interval of 14 days, a visual evaluation was performed to estimate herbicidal efficacy as percent control of plants in treated plots compared to untreated check plots.

[3] = system: common lambsquarter (Chenopodium album, CHEAL); assay: Example 46: percent control, various propelled particulate abrasives, glyphosate spray; conditions: glyphosate 0.11 kg a.e./ha, 200-mesh
Experimental: as §1, with “common lambsquarter (Chenopodium album, CHEAL)” for “velvetleaf (Abutilon theophrasti, ABUTH)”, “loam” for “loam soil”
Physical injury in this Example was inflicted on the above-ground portions of the plants, approximately 2 weeks after planting, by various propelled particulate abrasives. This was applied using the same sandblaster as used in Example 47. For this Example, air pressure was maintained at 40 lb/sq inch (276 kiloPascals), the nozzle was set 16 inches (41 cm) above the plant canopy, track speed was under 1 mile/hour (1.6 km/hr) and one pass was made with the sandblaster. […] Some plants received no abrasion.
Materials used as abrasive agents in this study were: • garnet, 200-mesh as used in Example 47 • glass cullet, 1040 supplied by Universal • glass cullet, 1035 supplied by Universal • aluminum oxide type B, 120-mesh • white silica sand, 1.0 profile size, supplied by Unimin • glass beads, 140-270 mesh • Scott's Lawn & Garden fertilizer granules ground to a fine powder using a Retsch 2M-1 mill
as §2, with “with 2” for “with 3”, “(187 liters/hectare)” for “(187 liters/ha)”
After an interval of 12 days, a visual evaluation was performed to estimate herbicidal efficacy as percent control of treated plants compared to untreated check plants.

## O=C(O)CNCP(=O)(O)O [glyphosate, N-phosphonomethylglycine]
[1]; glyphosate rate 0.0140 kg a.e./ha, injury by abrasion
  percent control of ABUTH: 30%
[1]; glyphosate rate 0.0140 kg a.e./ha, injury by corrosion (KOH)
  percent control of ABUTH: 7%
[1]; glyphosate rate 0.0140 kg a.e./ha, no physical injury
  percent control of ABUTH: 0%
[1]; glyphosate rate 0.028 kg a.e./ha, injury by abrasion
  percent control of ABUTH: 70%
[1]; glyphosate rate 0.028 kg a.e./ha, injury by corrosion (KOH)
  percent control of ABUTH: 13%
[1]; glyphosate rate 0.028 kg a.e./ha, no physical injury
  percent control of ABUTH: 0%
[1]; glyphosate rate 0.056 kg a.e./ha, injury by abrasion
  percent control of ABUTH: 75%
[1]; glyphosate rate 0.056 kg a.e./ha, injury by corrosion (KOH)
  percent control of ABUTH: 48%
[1]; glyphosate rate 0.056 kg a.e./ha, no physical injury
  percent control of ABUTH: 3%
[1]; glyphosate rate 0.11 kg a.e./ha, injury by abrasion
  percent control of ABUTH: 83%
[1]; glyphosate rate 0.11 kg a.e./ha, injury by corrosion (KOH)
  percent control of ABUTH: 73%
[1]; glyphosate rate 0.11 kg a.e./ha, no physical injury
  percent control of ABUTH: 0%
[1]; glyphosate rate 0.22 kg a.e./ha, injury by abrasion
  percent control of ABUTH: 96%
[1]; glyphosate rate 0.22 kg a.e./ha, injury by corrosion (KOH)
  percent control of ABUTH: 85%
[1]; glyphosate rate 0.22 kg a.e./ha, no physical injury
  percent control of ABUTH: 81%
[1]; glyphosate rate 0.45 kg a.e./ha, injury by abrasion
  percent control of ABUTH: 99%
[1]; glyphosate rate 0.45 kg a.e./ha, injury by corrosion (KOH)
  percent control of ABUTH: 91%
[1]; glyphosate rate 0.45 kg a.e./ha, no physical injury
  percent control of ABUTH: 87%
[1]; glyphosate rate 0.89 kg a.e./ha, no physical injury
  percent control of ABUTH: 100%
[2]; glyphosate rate 0.18 kg a.e./ha, injury treatment blasting
  percent control HRYMI: 77%
[2]; glyphosate rate 0.18 kg a.e./ha, injury treatment bruising
  percent control HRYMI: 77%
[2]; glyphosate rate 0.18 kg a.e./ha, injury treatment none
  percent control HRYMI: 62%
[2]; glyphosate rate 0.25 kg a.e./ha, injury treatment blasting
  percent control HRYMI: 100%
[2]; glyphosate rate 0.25 kg a.e./ha, injury treatment bruising
  percent control HRYMI: 80%
[2]; glyphosate rate 0.25 kg a.e./ha, injury treatment none
  percent control HRYMI: 78%
[2]; glyphosate rate 0.36 kg a.e./ha, injury treatment blasting
  percent control HRYMI: 100%
[2]; glyphosate rate 0.36 kg a.e./ha, injury treatment bruising
  percent control HRYMI: 93%
[2]; glyphosate rate 0.36 kg a.e./ha, injury treatment none
  percent control HRYMI: 92%
[3]; aluminum oxide, abrasive rate* (kg/ha) 143, calculated based on garnet
  percent control of CHEAL 12 days after glyphosate application: 46%
[3]; aluminum oxide, abrasive rate* (kg/ha) 256, calculated based on garnet
  percent control of CHEAL 12 days after glyphosate application: 50%
[3]; fertilizer, abrasive rate* (kg/ha) 143, calculated based on garnet
  percent control of CHEAL 12 days after glyphosate application: 25%
[3]; fertilizer, abrasive rate* (kg/ha) 256, calculated based on garnet
  percent control of CHEAL 12 days after glyphosate application: 34%
[3]; garnet, abrasive rate* (kg/ha) 143
  percent control of CHEAL 12 days after glyphosate application: 52%
[3]; garnet, abrasive rate* (kg/ha) 256
  percent control of CHEAL 12 days after glyphosate application: 37%
[3]; glass beads, abrasive rate* (kg/ha) 143, calculated based on garnet
  percent control of CHEAL 12 days after glyphosate application: 62%
[3]; glass beads, abrasive rate* (kg/ha) 256, calculated based on garnet
  percent control of CHEAL 12 days after glyphosate application: 43%
[3]; glass cullet, 1035, abrasive rate* (kg/ha) 143, calculated based on garnet
  percent control of CHEAL 12 days after glyphosate application: 28%
[3]; glass cullet, 1035, abrasive rate* (kg/ha) 256, calculated based on garnet
  percent control of CHEAL 12 days after glyphosate application: 48%
[3]; glass cullet, 1040, abrasive rate* (kg/ha) 143, calculated based on garnet
  percent control of CHEAL 12 days after glyphosate application: 38%
[3]; glass cullet, 1040, abrasive rate* (kg/ha) 256, calculated based on garnet
  percent control of CHEAL 12 days after glyphosate application: 20%
[3]; white silica sand, abrasive rate* (kg/ha) 143, calculated based on garnet
  percent control of CHEAL 12 days after glyphosate application: 38%
[3]; white silica sand, abrasive rate* (kg/ha) 256, calculated based on garnet
  percent control of CHEAL 12 days after glyphosate application: 50%
